# Laboratory results taken from patent publication US20180070870A1, “Autonomous Sweat Extraction and Analysis Using a Fully-Integrated Wearable Platform” (The Board of Trustees of the Leland Stanford Junior …, priority 2016, published 2018).
# System: sweat secretion
# Assay: Induced sweat rate profiles stimulated by cholinergic agonist hydrogels under iontophoresis, measured with a sweat rate sensor
# Type: in vivo, human
# Settings: iontophoresis 2 mA for 5 minutes
# Experimental: Bars represent values for response latency (time in seconds to onset of secretion from start of iontophoresis), response duration (total time in minutes of secretion above baseline, measurements stopped at 60 minutes), peak secretory rate in response to stimulation, time to reach peak secretory rate and time spent secreting at the peak rate. […] By modulating the formulation of the compounds that are loaded into the iontophoresis hydrogel, we can achieve different patterns of sweat secretion rate. We characterized the induced sweat rate profiles as stimulated by three different cholinergic agonist hydrogels (acetylcholine, methacholine and pilocarpine) each at two different concentrations. For this characterization step, 2 mA of current over duration of 5 minutes was applied using a pair of ring-shaped electrodes (WR Medical Electronics Co., MN, area: 4.3 cm2), with the sweat rate sensor (Q-sweat, WR Medical Electronics Co., MN) mounted on the positive electrode, sealing the stimulated area. […] This pattern is suitable for the case where periodic sweat sampling with short intervals is required. […] To retrieve the induced sweat rate information, immediately after each stimulation step, the stimulated area was wiped dry and sealed with the sweat rate sensor. After each characterization step, the same pair of hydrogels were reused for the subsequent stimulation. […]
row,SMILES,share of the secretion period spent at about the peak rate
1,CC[C@@H]1C(=O)OC[C@@H]1Cc1cncn1C [pilocarpine],about half
2,CC(=O)OC(C)C[N+](C)(C)C (centres unmarked) [methacholine],about half
